From patent publication US5874272A, “Inosine-guanosine kinase” (Kyowa Hakko Kogyo Co., Ltd., priority 1998, dated 1999)

Legend:
Type in all cases: biochemical
[1] = target: T1, inosine-guanosine kinase (Escherichia coli, UniProt P0AEW6); test: Substrate specificity (phosphate-donor / phosphate-acceptor); conditions: for suitability as phosphate-donor (in words): 5 mM phosphate source instead of ATP, 300 mM KCl, 30° C., inosine as acceptor; for suitability as phosphate-acceptor (in words): ATP or dATP as phosphate-donor
T1 construct: made in house; host or cells: Escherichia coli
T1 sequence (P0AEW6 1-434): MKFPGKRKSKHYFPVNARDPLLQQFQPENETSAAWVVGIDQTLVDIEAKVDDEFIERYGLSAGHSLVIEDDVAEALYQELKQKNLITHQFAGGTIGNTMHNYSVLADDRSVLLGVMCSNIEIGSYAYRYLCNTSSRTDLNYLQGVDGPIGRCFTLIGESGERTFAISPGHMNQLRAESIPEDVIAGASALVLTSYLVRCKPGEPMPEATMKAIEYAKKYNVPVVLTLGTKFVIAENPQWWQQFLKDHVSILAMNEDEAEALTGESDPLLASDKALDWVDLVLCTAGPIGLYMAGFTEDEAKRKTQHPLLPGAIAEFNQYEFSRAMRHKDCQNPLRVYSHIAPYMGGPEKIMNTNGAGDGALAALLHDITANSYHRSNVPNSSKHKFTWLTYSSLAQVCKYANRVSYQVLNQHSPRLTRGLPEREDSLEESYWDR
Method: (§1) The activity of the inosine-guanosine kinase obtained is determined as follows. A reaction solution (hereafter referred to as reaction solution a) having a composition of 100 mM HEPES buffer (pH 7.2), 10 mM MgSO4, 50 mM KCl, 1 mM ATP and 1 mM inosine is brought into contact with the inosine-guanosine kinase in a concentration of about 10 μg protein/ml followed by reaction at 30° C. for about 30 minutes. During the course of reaction, a part of the reaction solution is subjected to sampling intermittently. After the reaction solution is diluted to 1/20 with 0.2M NaH2 PO4 (adjusted the pH to 2.6 with H3 PO4) to stop the reaction, an amount of 5'-IMP in the stopped reaction solution is quantitatively determined by HPLC. Analysis by HPLC is made by using 0.2M NaH2 PO4 (pH 2.6) at a flow rate of 1 ml/min. as an eluting solution and Asahipak GS-320H (manufactured by Asahi Chemical Co., Ltd.) as a column. Detection of components was made by the absorbance at UV absorbance at 254 nm as an index. Quantitative determination was made by comparing absorbancy with that of the standard.
In the method for determination of inosine-guanosine kinase activity described above, a reaction is carried out at 30° C. by changing the concentration of KCl to 300 mM in the composition of reaction solution a and adding various neutralized phosphate sources to the reaction solution instead of ATP in a final concentration of 5 mM. […] Where ATP or dATP is used as phosphate-donor, inosine and guanosine are preferred as phosphate-acceptor.
FIG. 1 relates to substrate specificity for inosine-guanosine kinase, wherein the ordinate represents an amount of 5'-IMP produced and the abscissa represents time.

[2] = target: T1, inosine-guanosine kinase; test: Activation of inosine-guanosine kinase by divalent or trivalent metal ion salts instead of MgSO4; conditions: for Produced IMP: 10 mM metal salt instead of MgSO4, 300 mM KCl; for activating action on the enzyme (in words): metal ion salt instead of MgSO4, 300 mM KCl
Method: as §1
In the method for determination of inosine-guanosine kinase activity described above, a reaction is carried out by changing the buffer to Tris-hydrochloride buffer (pH 8.0), and varying the concentration of KCl in the composition of reaction solution a. […] Next, activation is examined in the system where the concentration of KCl is changed to 300 mM in the composition of reaction solution a, by adding various divalent or trivalent metal ion salts instead of MgSO4.

[3] = target: T1, inosine-guanosine kinase; test: Effect of added metal salts on inosine-guanosine kinase activity (inhibitor test); conditions: 300 mM KCl; for Relative Activity (%): 1 mM metal salt added to reaction solution a, 30° C., 30 minutes, no metal salt = 100; for inhibition of the enzyme by metal ions (in words): 1 mM metal salt
Method: as §1
In the method for determination of inosine-guanosine kinase activity described above, the activity is determined by reacting at 30° C. for 30 minutes except that the concentration of KCl is changed to 300 mM and 1 mM metal salt is added to the composition of reaction solution a. The activity is determined as a standard when no metal salt is added. The enzyme is inhibited by metal ions such as CO^2+, Cu^2+, Zn^2+, etc.

[4] = target: T1, inosine-guanosine kinase; test: K+ (KCl) dependency of inosine-guanosine kinase; conditions: Tris-hydrochloride buffer (pH 8.0); KCl varied, or 100 mM NaCl instead of KCl
Method: as §1
In the method for determination of inosine-guanosine kinase activity described above, a reaction is carried out by changing the buffer to Tris-hydrochloride buffer (pH 8.0), and varying the concentration of KCl in the composition of reaction solution a. […]

| SMILES | suitability as phosphate-donor (in words) [1] | Produced IMP [2] | Relative Activity (%) [3] | other results |
| --- | --- | --- | --- | --- |
| Nc1ncnc2c1ncn2[C@H]1C[C@H](O)[C@@H](COP(=O)(O)OP(=O)(O)OP(=O)(O)O)O1 [dATP, deoxyadenosine triphosphate] | good substrate | – | – | – |
| O=S(=O)([O-])[O-].[Mg+2] [MgSO4] | – | 0.68 mM | – | – |
| OC[C@H]1O[C@@H](n2cnc3c(O)ncnc32)[C@H](O)[C@@H]1O [inosine] | – | – | – | suitability as phosphate-acceptor (in words) [1]: preferred |
| Nc1ccn([C@@H]2O[C@H](COP(=O)(O)O)[C@@H](O)[C@H]2O)c(=O)n1 [5'-CMP, cytidine monophosphate] | could not be phosphate-donors | – | – | – |
| Nc1ncnc2c1ncn2[C@@H]1O[C@H](COP(=O)(O)O)[C@@H](O)[C@H]1O [5'-AMP, adenosine monophosphate] | could not be phosphate-donors | – | – | – |
| [Cl][Cu][Cl] [CuCl2] | – | 0 mM | 1% | – |
| [Ba+2].[Cl-].[Cl-] [BaCl2] | – | 0 mM | 116% | – |
| O=P(O)(O)OP(=O)(O)OP(=O)(O)O [tripolyphosphoric acid] | could not be phosphate-donors | – | – | – |
| CC(=O)OP(=O)(O)O [acetylphosphoric acid] | could not be phosphate-donors | – | – | – |
| [Co+2] [CO^2+] | – | – | – | inhibition of the enzyme by metal ions (in words) [3]: inhibited |
| Nc1ncnc2c1ncn2[C@@H]1O[C@H](COP(=O)(O)OP(=O)(O)O)[C@@H](O)[C@H]1O [ADP, adenosine diphosphate] | could not be phosphate-donors | – | – | – |
| CC(=O)[O-].CC(=O)[O-].[Zn+2] [Zn(CH3 COO)2] | – | 0 mM | 5% | – |
| [Mn+2] [Mn^2+] | – | – | – | activating action on the enzyme (in words) [2]: exhibit an activating action |
| [Cl-].[Na+] [NaCl] | – | – | 104% | monovalent cation requirement for activation (in words) [4]: no reaction proceeds |
| Nc1nc2c(ncn2[C@@H]2O[C@H](COP(=O)(O)OP(=O)(O)OP(=O)(O)O)[C@@H](O)[C@H]2O)c(=O)[nH]1 [GTP, guanosine triphosphate] | could not be phosphate-donors | – | – | – |
| Nc1ncnc2c1ncn2[C@@H]1O[C@H](COP(=O)(O)OP(=O)(O)OP(=O)(O)O)[C@@H](O)[C@H]1O [ATP, adenosine triphosphate] | good substrate | – | – | – |
| [Cl-].[Cl-].[Mg+2] [MgCl2] | – | 0.60 mM | – | – |
| [Zn+2] [Zn^2+] | – | – | – | inhibition of the enzyme by metal ions (in words) [3]: inhibited |

| SMILES | suitability as phosphate-donor (in words) [1] | Produced IMP [2] | Relative Activity (%) [3] | other results |
| --- | --- | --- | --- | --- |
| O=C(O)c1cc(=O)[nH]c(=O)n1[C@@H]1O[C@H](COP(=O)(O)O)[C@@H](O)[C@H]1O [5'-OMP, orotic acid monophosphate] | could not be phosphate-donors | – | – | – |
| [F-].[Na+] [NaF] | – | – | 96% | – |
| O=P(O)(O)OP(=O)(O)OP(=O)(O)OP(=O)(O)O [tetrapolyphosphoric acid] | could not be phosphate-donors | – | – | – |
| [K+] [K^+] | – | – | – | monovalent cation requirement for activation (in words) [4]: requires |
| O=P(O)(O)O [phosphoric acid] | could not be phosphate-donors | – | – | – |
| O=S(=O)([O-])[O-].[Mn+2] [MnSO4] | – | 0.64 mM | – | – |
| [Cu+2] [Cu^2+] | – | – | – | inhibition of the enzyme by metal ions (in words) [3]: inhibited |
| [Cl][Mn][Cl] [MnCl2] | – | 0.51 mM | 134% | – |
| [Cl-].[Cl-].[Co+2] [CoCl2] | – | 0.01 mM | 32% | – |
| O=P(O)(O)OP(=O)(O)O [pyrophosphoric acid] | could not be phosphate-donors | – | – | – |
| [Cl][Fe][Cl] [FeCl2] | – | 0 mM | 112% | – |
| Nc1nc2c(ncn2[C@@H]2O[C@H](CO)[C@@H](O)[C@H]2O)c(=O)[nH]1 [guanosine] | – | – | – | suitability as phosphate-acceptor (in words) [1]: preferred |
| [Ca+2].[Cl-].[Cl-] [CaCl2] | – | 0 mM | 107% | – |
| [Cl][Fe]([Cl])[Cl] [FeCl3] | – | 0 mM | 131% | – |
| [Mg+2] [Mg^2+] | – | – | – | activating action on the enzyme (in words) [2]: exhibit an activating action |
| O=S(=O)([O-])[O-].[Zn+2] [ZnSO4] | – | 0 mM | 5% | – |
| O=c1ccn([C@@H]2O[C@H](COP(=O)(O)OP(=O)(O)OP(=O)(O)O)[C@@H](O)[C@H]2O)c(=O)[nH]1 [UTP, uridine triphosphate] | the reaction proceeds a little bit | – | – | – |
